Laboratory results taken from US20160102103A1, “SUBSTITUTED PYRIDINE COMPOUNDS HAVING HERBICIDAL ACTIVITY” (BASF SE, priority 2013, published 2016).

What was measured:
Type in all cases: in vivo
[1] = tested on: Abutilon theophrasti; test: greenhouse post-emergence herbicidal test, ABUTH; settings: scale from 0 to 100
Text: (§1) The seeds of the test plants were sown separately for each species. For the post-emergence treatment, the test plants were first grown to a height of 3 to 15 cm, depending on the plant habit, and only then treated with the active ingredients which had been suspended or emulsified in water. For this purpose, the test plants were either sown directly and grown in the same containers, or they were first grown separately as seedlings and transplanted into the test containers a few days prior to treatment. Depending on the species, the plants were kept at 10-25° C. or 20-35° C., respectively. The test period extended over 2 to 4 weeks. During this time, the plants were tended, and their response to the individual treatments was evaluated. Evaluation was carried out using a scale from 0 to 100. 100 means no emergence of the plants, or complete destruction of at least the aerial moieties, and 0 means no damage, or normal course of growth. A good herbicidal activity is given at values of at least 70 and a very good herbicidal activity is given at values of at least 85. The plants used in the greenhouse experiments were of the following species: [table]

[2] = tested on: Capsella bursa-pastoris; test: greenhouse post-emergence herbicidal test, CAPBP; settings: application rate 0.25 kg/ha, scale from 0 to 100
Text: as §1

[3] = tested on: Setaria viridis; test: greenhouse post-emergence herbicidal test, SETVI; settings: scale from 0 to 100
Text: as §1

[4] = tested on: Echinocloa crus-galli; test: greenhouse post-emergence herbicidal test, ECHCG; settings: scale from 0 to 100
Text: as §1

[5] = tested on: Thlaspi arvense; test: greenhouse post-emergence herbicidal test, THLAR; settings: application rate 0.25 kg/ha, scale from 0 to 100
Text: as §1

[6] = tested on: Amaranthus retroflexus; test: greenhouse post-emergence herbicidal test, AMARE; settings: application rate 0.271 kg/ha, scale from 0 to 100
Text: as §1

[7] = tested on: Setaria faberi; test: greenhouse post-emergence herbicidal test, SETFA; settings: application rate 0.125 kg/ha, scale from 0 to 100
Text: as §1

[8] = tested on: Polygonum convolvulus; test: greenhouse post-emergence herbicidal test, POLCO; settings: application rate 0.125 kg/ha, scale from 0 to 100
Text: as §1

SMILES: O=S1(=O)Cc2cccnc2C(O)=C1c1c(Cl)cncc1Cl [Compound I-1]
- herbicidal activity against ABUTH ([1]; application rate 0.25 kg/ha): very good herbicidal activity (a very good herbicidal activity is given at values of at least 85)

SMILES: CC1c2cccnc2C(OC(=O)C(C)(C)C)=C(c2c(Cl)cnc(Cl)c2Cl)S1(=O)=O (stereo not shown) [Compound I-7]
- herbicidal activity against CAPBP [2]: very good herbicidal activity (a very good herbicidal activity is given at values of at least 85)

SMILES: CC(C)(C)C(=O)OC1=C(c2c(Cl)cnc(Cl)c2Cl)S(=O)(=O)C2(CC2)c2cccnc21 [Compound I-11]
- herbicidal activity against ABUTH ([1]; application rate 0.50 kg/ha): very good herbicidal activity (a very good herbicidal activity is given at values of at least 85)
- herbicidal activity against SETVI ([3]; application rate 0.50 kg/ha): very good herbicidal activity (a very good herbicidal activity is given at values of at least 85)
- herbicidal activity against ECHCG ([4]; application rate 0.50 kg/ha): very good herbicidal activity (a very good herbicidal activity is given at values of at least 85)

SMILES: O=S1(=O)C(c2c(Cl)cnc(Cl)c2Cl)=C(O)c2ncccc2C12CC2 [Compound I-12]
- herbicidal activity against THLAR [5]: very good herbicidal activity (a very good herbicidal activity is given at values of at least 85)

SMILES: COc1c(Cl)ncc(Cl)c1C1=C(OC(=O)C(C)(C)C)c2ncccc2CS1(=O)=O [Compound I-13]
- herbicidal activity against SETVI ([3]; application rate 0.25 kg/ha): good herbicidal activity (A good herbicidal activity is given at values of at least 70)

SMILES: COc1c(Cl)ncc(Cl)c1C1=C(O)c2ncccc2C(C)(C)S1(=O)=O [Compound I-16]
- herbicidal activity against ABUTH ([1]; application rate 0.125 kg/ha): very good herbicidal activity (a very good herbicidal activity is given at values of at least 85)

SMILES: COc1c(Cl)ncc(Cl)c1C1=C(OC(=O)C(C)(C)C)c2ncccc2C2(CC2)S1(=O)=O [Compound I-19]
- herbicidal activity against ABUTH ([1]; application rate 0.271 kg/ha): very good herbicidal activity (a very good herbicidal activity is given at values of at least 85)
- herbicidal activity against SETVI ([3]; application rate 0.271 kg/ha): very good herbicidal activity (a very good herbicidal activity is given at values of at least 85)
- herbicidal activity against AMARE [6]: very good herbicidal activity (a very good herbicidal activity is given at values of at least 85)

SMILES: O=S1(=O)Cc2cccnc2C(O)=C1c1c(F)cnc(Cl)c1Br [Compound I-27]
- herbicidal activity against ECHCG ([4]; application rate 0.25 kg/ha): very good herbicidal activity (a very good herbicidal activity is given at values of at least 85)

SMILES: CC1(C)c2cccnc2C(O)=C(c2c(F)cnc(Cl)c2Br)S1(=O)=O [Compound I-28]
- herbicidal activity against SETFA [7]: very good herbicidal activity (a very good herbicidal activity is given at values of at least 85)

SMILES: Cc1c(Cl)ncc(F)c1C1=C(O)c2ncccc2CS1(=O)=O [Compound I-36]
- herbicidal activity against ECHCG ([4]; application rate 1.0 kg/ha): good herbicidal activity (A good herbicidal activity is given at values of at least 70)

SMILES: CC1(C)c2cccnc2C(O)=C(c2c(Cl)cnc(Cl)c2F)S1(=O)=O [Compound I-39]
- herbicidal activity against POLCO [8]: good herbicidal activity (A good herbicidal activity is given at values of at least 70)

SMILES: O=S1(=O)Cc2cccnc2C(O)=C1c1c(Br)cnc(Cl)c1F [Compound I-40]
- herbicidal activity against ECHCG ([4]; application rate 0.125 kg/ha): good herbicidal activity (A good herbicidal activity is given at values of at least 70)
